According to patent US9133260B2 (priority 2005, dated 2015):
“Also recorded” adds a separate entry of the source. Like-named read-outs stand apart in the source and are kept apart here. Ends that are not written are not given here.

Assays:
[1] = cited from earlier work; for EC(50) inhibition of gastric emptying: subcutaneous, conscious rats, rat weight ~200 g; for inhibition of gastric emptying, in words: at doses of 100 μg
[2] = format: in vivo, NIH/Swiss mice; settings: for acute food intake, in words: IP at t=0, 30, 60, 120 min
Experimental: Peptide was injected IP at t=0.
Peptide was injected IP at t=0. […] Peptide was injected IP at t=0.

[3] = test system: cardiomyocyte Gs-coupled receptors; assay: cAMP production in isolated neonatal cardiomyocytes (HTRF); format: cell-based, rat
Experimental: Activation of cardiomyocyte Gs- and Gi-coupled receptors was determined as a measure of cAMP production.
Cell Isolation. Neonatal cardiomyocytes were isolated using a commercially available system. […] Sprague Dawley neonatal rats (1-2 days old) were decapitated and the beating heart dissected out into digestion buffer (Cellutron D1 buffer) to dissociate cells. […] The resuspended cells incubated in buffer (Cellutron D3 buffer) for sufficient time to allow optimal dispersion and minimize the need for pipetting to break up clumps. Cells released from the first 2 digestions were discarded since a significant portion of these is red blood cells. Resuspended cells were filtered and allowed to pre-plate for 1 hour on plastic in an incubator in NS media (Cellutron, NJ) in order to remove fibroblasts. After 1 hour of pre-plating, floating cells are removed and the flask rinsed with NS media. The floating cells and the cells in the rinse media were combined and counted. Residual red blood cells, which are smaller that the cardiac myocytes, were not counted.
Cell Plating. […] At Day 1, the NS media was replaced with fresh NS media.
cAMP Assay. […] Dose response was determined.
For Gs assays the positive control was 10 uM forskolin and negative control was buffer. For Gi assays the positive control was buffer and the negative control was 10 uM forskolin.

[4] = Basal glucose lowering in 2-hour fasted NIH/Swiss mice; format: in vivo; settings: for basal glucose lowering (% maximal decrease): mouse, in vivo
Experimental: (§1) In FIG. 3A, bars represent mean±sd, n=6-10. Peptide was injected IP at t=−5 into overnight-fasted NIH/Swiss mice. Gavage (1.5 g/kg) was given at t=0. Sample was taken at t=30 min. […] In FIG. 3B, points represent mean±sem, n=8-15. Peptide was injected IP at t=0 immediately following baseline sample into 2-hour fasted NIH/Swiss mice. Samples were taken at t=60, 120, and 180 minutes. […] Compound G has both an N-terminal modification providing DPP-IV resitance and a C-terminal Trp-cage shield.
Points represent mean±sem. Peptide was injected IP at t=0 immediately following baseline sample into 2-hour fasted NIH/Swiss mice. Samples were taken at t=60, 120, 180 and 240 minutes.
FIGS. 8A and 8b provide a result of one such study. Points represent mean±sem. Peptide was injected IP at t=0 immediately following baseline sample into 2-hour fasted NIH/Swiss mice. Samples were taken at t=60, 120, 180 and 240 minutes.

[5] = Intravenous glucose tolerance test (IVGTT assay); format: in vivo, rats; settings: 100 pmol/kg/min infusion; for insulinotropic response to an intravenous glucose challenge: anesthetized HSD male rats
Experimental: All three analogs produced a significant lowering of the glucose excursion in response to the glucose challenge (data not shown). As described, fed, isoflurane anesthetized HSD male rats were intubated and cannulated via femoral artery and vein and allowed to stabilize for 1 hour. […] At t=0, an i.v. bolus of 5.7 mmol/kg D-glucose was administered over 2 minutes. Samples for glucose measurement and insulin concentrations were taken at various time points before and after (0 to 90 minutes) glucose infusion.

[6] = Oral glucose tolerance test (OGTT); format: in vivo, NIH/Swiss mice; settings: decrease in the OGTT assay
Experimental: as §1
In FIG. 13B bars represent mean+/−sd. Peptide was injected IP at t=−5 minutes into 4-hour fasted NIH/Swiss female mice. Gavage (1.5 g/kg) was given at t=0. […] In FIG. 17 points represent mean+/−sem. Peptide was injected IP at t=) immediatley following baseline sample into 2-hour fasted NIH/Swiss mice. Samples were taken at t=60, t=120 and t=180. […] In one embodiment for each of these GIP hybrids a Gly linker is used, e.g. GlyGlyGly.

[7] = Glucose lowering in diabetic db/db mice; format: in vivo; settings: IP; GIP at a 10 fold higher dose
Experimental: Peptide was injected IP at t=0 immediately following baseline sample into 2-hour fasted db/db mice.

[8] = Circulatory system effects in conscious rats by telemetry; format: in vivo; settings: 80 nmol/kg intravenous
Experimental: The experiments were performed during the light cycle. Telemetry allows for real-time hemodynamic readings including arterial blood pressure, heart rate and arterial dP/dt, via an implanted radio transmitter in conscious, non-anesthetized, unrestrained rats. […] Remote intravenous dosing was achieved through in-dwelling vascular access ports (Access Technologies (Skokie, Ill.). The port is secured to the underlying muscle just below the skin between the scapulae. The catheter resides in the jugular vein. Data were collected for up to 60 minutes following injection.

[9] = Body weight in diet-induced-obesity (DIO) mice; format: in vivo, C57BL/6 mice; settings: for body weight change in diet-induced-obese mice: infused via osmotic pump for 2 weeks
[10] = molecular target: relevant receptors; assay: Cyclase, table of GIP/amylin-sCT hybrids; format: biochemical; settings: receptor and unit inferred

In the case of “CSNLSTCVLGKLSQELHKLQTYPRTNTGSGTP [Salmon calcitonin]”, the “EC(50) inhibition of gastric emptying” value [1] is listed as 0.19 µg.

For DY(SO3) MGWMDF-NH2 [CCK-8], the “60 min ED50” value ([2]; mouse, in vivo) is listed as 26 nmol/kg and the “EC(50) inhibition of gastric emptying” value [1] is listed as 2.93 µg.

For “Gastrin releasing peptide: gastrin releasing peptide (VPLPAGGGTVLTKMYPRGNHWAVGHLM-NH2; ends and bridges not checked; UniProt P07492 24-50, looked up)”, the “EC(50) inhibition of gastric emptying” value [1] is listed as 28.5 µg.

For “HAEGTFTSDVSSYLEGQAAKEFIAWLVKGR-NH2 [GLP-1]”, the “cAMP activity in cardiomyocytes, in words” value [3] is given as “very low to no significant activity” and the “EC(50) inhibition of gastric emptying” value [1] is given as 1.82 µg.

For “HGEGAFTSDLSKQLEEEAVRLFIEFLKN-NH2 [Exendin-4 (1-28) [Ala5, Leu14, Phe25]]”, the “60 min ED50” value ([2]; mouse food intake at 60 min) was 13 nmol/kg.

For “KCNTATCATQRLANFLVHSSNNFGAILSSTNVGSNTY [Human amylin]”, the “EC(50) inhibition of gastric emptying” value [1] is given as 0.15 µg.

In the case of “KCNTATCATQRLANFLVRSSNNLGPVLPPTNVGSNTY-NH2 [Rat Amylin]”, the “acute food intake, in words” value [2] is given as “significant decrease in food intake within 30 min”, the “60 min ED50” value ([2]; mouse food intake at 60 min) is given as 9 nmol/kg and the “EC(50) inhibition of gastric emptying” value [1] is given as 0.18 µg.

In the case of “PACAP38: pituitary adenylate cyclase activating peptide (PACAP38) (HSDGIFTDSYSRYRKQMAVKKYLAAVLGKRYKQRVKNK-NH2; ends and bridges not checked; UniProt P18509 132-169, looked up)”, the “inhibition of gastric emptying, in words” value [1] is given as “weakly active or inactive”.

For “Rat CGRP: rat calcitonin gene related peptide (SCNTATCVTHRLAGLLSRSGGVVKDNFVPTNVGSEAF; ends and bridges not checked; cysteine pairing not given here; UniProt P01256 83-119, looked up)”, the “EC(50) inhibition of gastric emptying” value [1] is given as 1.62 µg.

In the case of “Rat calcitonin: rat calcitonin, peptide compared for inhibition of gastric emptying (CGNLSTCMLGTYTQDLNKFHTFPQTSIGVGAP; ends and bridges not checked; cysteine pairing not given here; UniProt P01257 85-116, looked up)”, the “EC(50) inhibition of gastric emptying” value [1] is listed as 0.64 µg.

For Secretin: gut peptide hormone secretin, the “EC(50) inhibition of gastric emptying” value [1] is given as 1.87 µg.

With “Y(D-Ala)EGTFISDYSIAMDKIHQQDFVNWLLAQKGKKNDWKHNITQ-OH [Compound 0601GIP4042]” the “basal glucose lowering (% maximal decrease)” value [4] was −11% and the “insulinotropic response to an intravenous glucose challenge” value (“insulinotropic response” below) [5] was “significant enhancement of the insulinotropic response”.

For “YAEGTFISDYSIAMDKIHQQDFVNWLLAQKGKKNDWKHNITQ-OH [GIP]”, the “acute food intake, in words” value [2] was “did not acutely inhibit food intake”, the OGTT response [6] was −10% and the “glucose lowering in diabetic db/db mice, in words” value [7] was “modest and wanes over time”. For the same substance, the “insulin levels prior to the glucose challenge” value [5] was “significant rise in insulin levels”, the “insulinotropic response” value [5] was “significant enhancement of the insulinotropic response” and the dP/dt [8] was “increased dP/dt similarly”. For the same substance, the heart rate [8] was “chronotropic (heart rate elevating) effect”, the mean arterial pressure [8] was “had no effect” and the “body weight change in diet-induced-obese mice” value [9] was “had no effect on body weight change”. For the same substance, the “inhibition of gastric emptying, in words” value [1] was “weakly active or inactive”.

“YAEGTFISDYSIAMDKIHQQDFVNWLLAQKPSSGAPPPS [Compound 1]” gave an EC50 [10] of 519 nM.

For “YaEGTFISDYSIAMDKIHQQDFVNWLLAQKPSSGAPPPS-NH2 [Compound 0601GIP3794]”, the “acute food intake, in words” value [2] was “did not acutely inhibit food intake”, the “glucose lowering in normal NIH/Swiss mice, in words” value ([4]; IP, samples 60-240 min, listed as Compound G) was “significantly more efficacious than full length GIP; also recorded: gradually increasing activity that peaks at t=120 min” and the “basal glucose lowering (% maximal decrease)” value [4] was −20%. The OGTT response [6] was −21%, the “glucose lowering in diabetic db/db mice, in words” value [7] was “pronounced and long-acting effect in lowering glucose” and the “insulin levels prior to the glucose challenge” value [5] was “significant rise in insulin levels”. For the same substance, the “insulinotropic response” value [5] was “significant enhancement of the insulinotropic response”, the EC50 ([3]; experiment of FIGS. 18A/18B, read-out: EC50, cAMP production in cardiomyocytes) was 11.7 nM and the EC50 ([3]; from three independent experiments, read-out: EC50, cardiomyocyte Gs-coupled receptor activation) was 29.8 nM. For the same substance, the dP/dt [8] was “increased dP/dt similarly”, the heart rate [8] was “transient relative to GIP” and the mean arterial pressure [8] was “decreased mean arterial pressure”. The “systolic and diastolic pressures” value [8] was “sustained lowering of systolic and diastolic pressures”, the “body weight change in diet-induced-obese mice” value [9] was “without a concomitant reduction in body weight” and the body composition ([9]; mouse, in vivo) was “slight decrease in percentage body fat with an increase in body protein”.

For “adrenomedullin: amylin family peptide hormone adrenomedullin (YRQSMNNFQGLRSFGCRFGTCTVQKLAHQIYQFTDKDKDNVAPRSKISPQGY; ends and bridges not checked; cysteine pairing not given here; UniProt P35318 95-146, looked up)”, the “inhibition of gastric emptying, in words” value [1] is given as “weakly active or inactive”.

For glucagon: peptide hormone glucagon, the “inhibition of gastric emptying, in words” value [1] is listed as “weakly active or inactive”.

In the case of “insulin: insulin (tested with plasma glucose maintained constant)”, the “inhibition of gastric emptying, in words” value [1] is listed as “weakly active or inactive”.

In the case of neuropeptide Y: neuropeptide Y, the “inhibition of gastric emptying, in words” value [1] is given as “weakly active or inactive”.

In the case of “vasoactive intestinal peptide: vasoactive intestinal peptide (VIP) (HSDAVFTDNYTRLRKQMAVKKYLNSILN; ends and bridges not checked; UniProt P01282 125-152, looked up)”, the “inhibition of gastric emptying, in words” value [1] is given as “weakly active or inactive”.
